From ChEMBL document CHEMBL4152300, “Discovery of the selective and efficacious inhibitors of FLT3 mutations” (Eur J Med Chem, 2018)

What was measured:
MV4-11 [1] = assay: Induction of apoptosis in human MV4-11 cells assessed as live cells at 0.2 uM after 24 hrs by Annexin V-FITC/propidium iodide staining based flow cytometry (reference value: 100%); format: functional
[2] = target: T1, Vascular endothelial growth factor receptor 1 (Homo sapiens, UniProt P17948); assay: Inhibition of human FLT1 by Hotspot assay
T1 sequence (P17948 whole entry): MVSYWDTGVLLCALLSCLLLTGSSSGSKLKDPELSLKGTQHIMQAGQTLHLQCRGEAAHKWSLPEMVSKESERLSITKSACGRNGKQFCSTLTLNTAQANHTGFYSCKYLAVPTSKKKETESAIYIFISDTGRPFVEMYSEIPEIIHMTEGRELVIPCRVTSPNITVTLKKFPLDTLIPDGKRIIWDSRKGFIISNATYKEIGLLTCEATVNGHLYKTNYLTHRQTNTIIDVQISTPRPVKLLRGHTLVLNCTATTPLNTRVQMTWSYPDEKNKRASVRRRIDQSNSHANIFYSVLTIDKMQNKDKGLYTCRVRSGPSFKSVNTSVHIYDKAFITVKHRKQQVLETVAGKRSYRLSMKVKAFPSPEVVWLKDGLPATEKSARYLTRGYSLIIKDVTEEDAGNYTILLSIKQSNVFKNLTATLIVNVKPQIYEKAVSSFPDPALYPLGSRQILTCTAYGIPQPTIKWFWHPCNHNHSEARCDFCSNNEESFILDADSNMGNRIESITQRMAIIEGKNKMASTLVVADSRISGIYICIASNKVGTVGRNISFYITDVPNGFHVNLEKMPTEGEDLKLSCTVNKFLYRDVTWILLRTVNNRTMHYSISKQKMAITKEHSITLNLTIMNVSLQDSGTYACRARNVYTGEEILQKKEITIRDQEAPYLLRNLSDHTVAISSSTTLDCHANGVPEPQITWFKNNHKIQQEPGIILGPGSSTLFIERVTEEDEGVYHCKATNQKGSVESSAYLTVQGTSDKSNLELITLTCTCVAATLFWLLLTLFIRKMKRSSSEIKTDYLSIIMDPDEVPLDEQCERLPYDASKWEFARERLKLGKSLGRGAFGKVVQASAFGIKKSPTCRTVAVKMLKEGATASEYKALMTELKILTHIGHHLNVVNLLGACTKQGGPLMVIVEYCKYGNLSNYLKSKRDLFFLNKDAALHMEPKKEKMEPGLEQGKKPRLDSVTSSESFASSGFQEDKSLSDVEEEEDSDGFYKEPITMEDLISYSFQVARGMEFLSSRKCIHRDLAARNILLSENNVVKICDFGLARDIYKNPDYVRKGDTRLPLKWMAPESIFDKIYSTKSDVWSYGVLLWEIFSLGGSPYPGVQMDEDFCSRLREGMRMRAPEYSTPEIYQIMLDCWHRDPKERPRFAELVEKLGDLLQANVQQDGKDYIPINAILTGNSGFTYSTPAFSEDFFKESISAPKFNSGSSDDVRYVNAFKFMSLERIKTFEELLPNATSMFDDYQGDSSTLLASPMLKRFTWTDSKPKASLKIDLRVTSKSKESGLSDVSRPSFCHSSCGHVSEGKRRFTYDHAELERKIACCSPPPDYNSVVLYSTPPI

[3] = target: T2, Receptor-type tyrosine-protein kinase FLT3 (Homo sapiens, UniProt P36888); assay: Inhibition of human FLT3 F594_R595insR mutant by Hotspot assay
[4] = target: T3, Receptor-type tyrosine-protein kinase FLT3 (Homo sapiens, UniProt P36888, D835Y); assay: Binding affinity to human FLT3 D835Y mutant (Q580 to Y969 residues) expressed in bacterial expression system by Kinomescan method
[5] = target: T4, Vascular endothelial growth factor receptor 3 (Homo sapiens, UniProt P35916); assay: Inhibition of human FLT4 at 0.123 uM by Hotspot assay relative to control
T4 sequence (P35916 whole entry): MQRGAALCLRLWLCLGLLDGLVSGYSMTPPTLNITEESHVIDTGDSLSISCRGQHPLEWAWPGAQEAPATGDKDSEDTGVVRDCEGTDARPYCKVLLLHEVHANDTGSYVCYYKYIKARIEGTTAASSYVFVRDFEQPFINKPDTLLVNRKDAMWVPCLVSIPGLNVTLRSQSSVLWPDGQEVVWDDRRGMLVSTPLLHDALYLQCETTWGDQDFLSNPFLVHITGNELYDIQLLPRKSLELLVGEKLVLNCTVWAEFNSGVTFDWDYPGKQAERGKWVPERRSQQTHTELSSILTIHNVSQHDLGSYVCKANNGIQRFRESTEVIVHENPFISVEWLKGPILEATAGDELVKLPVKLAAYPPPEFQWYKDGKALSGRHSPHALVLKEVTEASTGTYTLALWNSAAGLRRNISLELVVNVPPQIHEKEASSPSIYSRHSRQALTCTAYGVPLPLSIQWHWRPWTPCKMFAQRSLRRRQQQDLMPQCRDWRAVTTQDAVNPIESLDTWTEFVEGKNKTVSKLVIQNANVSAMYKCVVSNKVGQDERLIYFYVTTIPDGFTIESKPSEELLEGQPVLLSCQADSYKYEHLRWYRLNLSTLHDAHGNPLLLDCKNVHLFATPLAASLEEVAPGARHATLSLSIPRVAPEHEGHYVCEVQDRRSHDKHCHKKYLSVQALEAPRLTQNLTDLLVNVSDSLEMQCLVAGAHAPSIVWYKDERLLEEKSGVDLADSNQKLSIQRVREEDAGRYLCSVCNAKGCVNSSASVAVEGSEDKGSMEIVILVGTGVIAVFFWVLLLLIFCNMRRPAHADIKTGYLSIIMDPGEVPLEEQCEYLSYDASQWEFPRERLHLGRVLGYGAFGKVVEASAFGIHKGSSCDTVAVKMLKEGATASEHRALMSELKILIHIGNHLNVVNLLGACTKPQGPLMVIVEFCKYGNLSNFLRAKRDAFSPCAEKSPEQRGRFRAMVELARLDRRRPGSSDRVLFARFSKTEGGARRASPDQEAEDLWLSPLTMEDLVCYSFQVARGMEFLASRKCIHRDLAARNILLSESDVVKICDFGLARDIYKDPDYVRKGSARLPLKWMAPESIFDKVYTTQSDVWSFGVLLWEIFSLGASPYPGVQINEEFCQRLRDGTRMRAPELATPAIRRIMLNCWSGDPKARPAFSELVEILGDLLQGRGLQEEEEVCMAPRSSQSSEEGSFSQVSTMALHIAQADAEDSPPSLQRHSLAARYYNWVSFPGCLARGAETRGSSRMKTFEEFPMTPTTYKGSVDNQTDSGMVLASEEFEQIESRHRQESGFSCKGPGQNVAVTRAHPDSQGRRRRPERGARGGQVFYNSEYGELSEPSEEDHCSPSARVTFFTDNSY

[6] = target: T5, Receptor-type tyrosine-protein kinase FLT3 (Homo sapiens, UniProt P36888, ITD); assay: Inhibition of human FLT3 ITD-NPOS mutant by Hotspot assay
[7] = target: Receptor-type tyrosine-protein kinase FLT3 (Homo sapiens, UniProt P36888, F691L/ITD); assay: Binding affinity to human FLT3 ITD/F691L double mutant expressed in bacterial expression system by Kinomescan method
[8] = Intrinsic clearance in human liver microsomes preincubated for 5 mins followed by NADPH addition by LC-MS/MS analysis; format: ADME, microsome; settings: read-out: CLH
[9] = target: CDK2 (cyclin-dependent kinase 2) (Homo sapiens, UniProt P24941); assay: Inhibition of CDK2 (unknown origin) assessed as residual activity at 0.123 uM by Hotspot assay relative to control; settings: CDK2 enzyme (unknown origin), read-out: Activity
[10] = target: T3, Receptor-type tyrosine-protein kinase FLT3; assay: Inhibition of human FLT3 D835Y mutant by Hotspot assay
[11] = target: T2, Receptor-type tyrosine-protein kinase FLT3; assay: Inhibition of FLT3 phosphorylation at Tyr589/591 residues in human MV4-11 cells after 4 hrs by Western blot analysis; format: cell-based
MV4-11 [12] = assay: Induction of apoptosis in human MV4-11 cells assessed as necrotic cells at 0.5 uM after 24 hrs by Annexin V-FITC/propidium iodide staining based flow cytometry (reference value: 0%); format: functional
MV4-11 [13] = assay: Induction of apoptosis in human MV4-11 cells assessed as necrotic cells at 0.2 uM after 24 hrs by Annexin V-FITC/propidium iodide staining based flow cytometry (reference value: 0%); format: functional
MV4-11 [14] = assay: Induction of apoptosis in human MV4-11 cells after 24 hrs by Annexin V-FITC/propidium iodide staining based flow cytometry; format: functional, cell-based
[15] = target: T5, Receptor-type tyrosine-protein kinase FLT3; assay: Inhibition of human FLT3 ITD-W51 mutant by Hotspot assay
[16] = target: T2, Receptor-type tyrosine-protein kinase FLT3; assay: Inhibition of FLT3 in human MV4-11 cells assessed as reduction in STAT5 phosphorylation at Tyr694 residue after 4 hrs by Western blot analysis; format: cell-based
[17] = target: T2, Receptor-type tyrosine-protein kinase FLT3; assay: Inhibition of FLT3 in human MV4-11 cells assessed as reduction in AKT phosphorylation at Ser473 residue after 4 hrs by Western blot analysis; format: cell-based
MV4-11 [18] = assay: Induction of apoptosis in human MV4-11 cells assessed as late apoptotic cells at 0.5 uM after 24 hrs by Annexin V-FITC/propidium iodide staining based flow cytometry (reference value: 0%); format: functional
[19] = target: T6, Vascular endothelial growth factor receptor 2 (Homo sapiens, UniProt P35968); assay: Inhibition of human KDR by Hotspot assay
T6 sequence (P35968 whole entry): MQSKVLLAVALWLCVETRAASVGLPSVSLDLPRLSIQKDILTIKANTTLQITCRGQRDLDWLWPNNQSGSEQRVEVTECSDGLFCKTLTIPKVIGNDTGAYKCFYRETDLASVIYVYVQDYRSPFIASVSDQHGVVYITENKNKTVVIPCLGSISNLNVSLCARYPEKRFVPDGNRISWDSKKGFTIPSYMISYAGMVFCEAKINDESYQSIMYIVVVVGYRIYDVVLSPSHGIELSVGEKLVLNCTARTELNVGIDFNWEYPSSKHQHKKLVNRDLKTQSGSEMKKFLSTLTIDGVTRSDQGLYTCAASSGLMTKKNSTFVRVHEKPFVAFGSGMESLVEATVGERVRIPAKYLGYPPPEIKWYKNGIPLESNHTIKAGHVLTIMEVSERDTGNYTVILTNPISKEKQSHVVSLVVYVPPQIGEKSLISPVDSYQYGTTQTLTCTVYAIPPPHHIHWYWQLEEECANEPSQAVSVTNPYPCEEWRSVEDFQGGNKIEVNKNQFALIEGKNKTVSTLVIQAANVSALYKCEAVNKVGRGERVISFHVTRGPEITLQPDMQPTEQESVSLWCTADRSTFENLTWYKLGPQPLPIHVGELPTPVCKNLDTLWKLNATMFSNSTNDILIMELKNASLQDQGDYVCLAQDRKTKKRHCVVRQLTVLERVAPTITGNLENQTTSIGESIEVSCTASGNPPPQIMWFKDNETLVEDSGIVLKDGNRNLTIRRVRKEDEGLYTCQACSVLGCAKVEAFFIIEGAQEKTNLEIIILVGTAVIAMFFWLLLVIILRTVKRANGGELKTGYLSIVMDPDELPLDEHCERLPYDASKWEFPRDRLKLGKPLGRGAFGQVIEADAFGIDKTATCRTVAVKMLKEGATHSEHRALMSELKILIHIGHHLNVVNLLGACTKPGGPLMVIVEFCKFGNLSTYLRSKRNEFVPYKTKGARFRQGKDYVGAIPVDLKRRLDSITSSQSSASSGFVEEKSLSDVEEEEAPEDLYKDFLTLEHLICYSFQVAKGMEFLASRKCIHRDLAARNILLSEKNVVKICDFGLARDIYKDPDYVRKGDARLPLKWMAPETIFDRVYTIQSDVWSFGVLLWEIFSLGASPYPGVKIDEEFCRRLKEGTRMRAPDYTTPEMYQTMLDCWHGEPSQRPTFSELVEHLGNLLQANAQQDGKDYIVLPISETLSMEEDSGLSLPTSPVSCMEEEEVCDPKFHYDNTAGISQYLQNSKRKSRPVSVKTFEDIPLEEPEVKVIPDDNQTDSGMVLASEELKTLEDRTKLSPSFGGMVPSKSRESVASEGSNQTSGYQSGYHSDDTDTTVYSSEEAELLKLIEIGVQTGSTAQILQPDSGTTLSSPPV

[20] = target: T2, Receptor-type tyrosine-protein kinase FLT3; assay: Inhibition of human FLT3 R595_E596 mutant by Hotspot assay
MV4-11 [21] = assay: Growth inhibition of human MV4-11 cells harboring FLT3-ITD after 72 hrs by Cell-Titer Glo assay; format: functional, cell-based; settings: MV4-11, 72 h
[22] = target: T7, Receptor-type tyrosine-protein kinase FLT3 (Homo sapiens, UniProt P36888)
T7 sequence (P36888 whole entry): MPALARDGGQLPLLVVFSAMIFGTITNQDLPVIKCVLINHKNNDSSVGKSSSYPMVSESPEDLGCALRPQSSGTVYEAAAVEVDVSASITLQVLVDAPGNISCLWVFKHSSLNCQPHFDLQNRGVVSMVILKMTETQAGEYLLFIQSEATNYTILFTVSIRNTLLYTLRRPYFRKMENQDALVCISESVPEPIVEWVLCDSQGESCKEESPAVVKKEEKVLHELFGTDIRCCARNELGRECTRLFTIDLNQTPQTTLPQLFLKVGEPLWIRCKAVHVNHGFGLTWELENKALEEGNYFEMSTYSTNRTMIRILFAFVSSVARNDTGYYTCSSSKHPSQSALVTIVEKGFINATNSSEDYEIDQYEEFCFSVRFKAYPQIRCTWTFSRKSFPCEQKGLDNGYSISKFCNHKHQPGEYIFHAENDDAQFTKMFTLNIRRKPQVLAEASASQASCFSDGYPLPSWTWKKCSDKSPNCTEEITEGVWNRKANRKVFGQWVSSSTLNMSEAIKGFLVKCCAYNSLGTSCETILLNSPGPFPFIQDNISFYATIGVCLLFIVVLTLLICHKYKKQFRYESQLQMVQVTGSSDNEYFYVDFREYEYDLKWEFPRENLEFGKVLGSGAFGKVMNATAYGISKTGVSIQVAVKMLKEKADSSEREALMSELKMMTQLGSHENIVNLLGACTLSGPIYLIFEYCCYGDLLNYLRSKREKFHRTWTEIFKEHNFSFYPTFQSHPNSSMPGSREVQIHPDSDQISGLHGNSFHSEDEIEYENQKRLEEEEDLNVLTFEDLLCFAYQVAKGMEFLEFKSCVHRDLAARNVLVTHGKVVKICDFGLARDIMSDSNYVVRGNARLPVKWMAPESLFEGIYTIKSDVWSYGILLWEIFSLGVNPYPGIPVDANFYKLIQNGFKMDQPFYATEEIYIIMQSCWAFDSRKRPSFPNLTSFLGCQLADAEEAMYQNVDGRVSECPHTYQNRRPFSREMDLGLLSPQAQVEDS
Description: Inhibition of human FLT3 by Hotspot assay

MV4-11 [23] = assay: Induction of apoptosis in human MV4-11 cells assessed as late apoptotic cells at 0.2 uM after 24 hrs by Annexin V-FITC/propidium iodide staining based flow cytometry (reference value: 0%); format: functional
[24] = target: T6, Vascular endothelial growth factor receptor 2; assay: Inhibition of human KDR at 0.123 uM by Hotspot assay relative to control
MV4-11 [25] = assay: Induction of apoptosis in human MV4-11 cells assessed as early apoptotic cells at 0.2 uM after 24 hrs by Annexin V-FITC/propidium iodide staining based flow cytometry (reference value: 0%); format: functional
[26] = target: Mast/stem cell growth factor receptor Kit (Homo sapiens, UniProt P10721); assay: Inhibition of human KIT at 0.123 uM by Hotspot assay
[27] = target: Cyclin-dependent kinase 6 (Homo sapiens, UniProt Q00534); assay: Inhibition of CDK6 (unknown origin) assessed as residual activity at 0.123 uM by Hotspot assay relative to control
Cyclin-dependent kinase 6, sequence (Q00534 whole entry): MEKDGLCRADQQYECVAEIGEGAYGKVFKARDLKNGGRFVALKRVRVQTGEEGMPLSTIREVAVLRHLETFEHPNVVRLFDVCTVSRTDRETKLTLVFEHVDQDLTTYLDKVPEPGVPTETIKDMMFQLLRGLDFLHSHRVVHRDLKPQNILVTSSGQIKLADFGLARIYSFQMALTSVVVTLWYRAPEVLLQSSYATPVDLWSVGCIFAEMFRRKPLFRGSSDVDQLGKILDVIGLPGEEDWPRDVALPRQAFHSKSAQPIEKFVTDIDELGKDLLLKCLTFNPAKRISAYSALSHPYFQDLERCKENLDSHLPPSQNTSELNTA

[28] = target: T4, Vascular endothelial growth factor receptor 3; assay: Inhibition of human FLT4 by Hotspot assay
[29] = target: T1, Vascular endothelial growth factor receptor 1; assay: Inhibition of human FLT1 at 0.123 uM by Hotspot assay relative to control

Q: Which Activity (MV4-11 [1]) does the source give for `Cc1nc2c(c(Nc3c[nH]nc3C(=O)Nc3ccc(N4CCNCC4)cc3)n1)CCC2` here?
A: 62.2%

Q: What about the IC50 [2] of the same compound?
A: 0.22 µM

Q: And the IC50 [3]?
A: 0.00697 µM

Q: What about the Kd [4] of the same compound?
A: 0.00533 µM

Q: And the inhibition [5]?
A: > 50%

Q: What about the IC50 [6] of the same compound?
A: 0.0149 µM

Q: What about the Kd [7] of the same compound?
A: 0.0131 µM

Q: What about the microsomal CLint [8] of the same compound?
A: 9.4 µL/min/mg

Q: And the activity at 0.123 µM [9]?
A: 86.3%

Q: And the IC50 [10]?
A: 0.00179 µM

Q: What about the inhibition [11] of the same compound?
A: Dose-dependent effect

Q: And the Activity (MV4-11 [12])?
A: 0.83%

Q: And the Activity (MV4-11 [13])?
A: 1.92%

Q: What about the Activity (MV4-11 [14]) of the same compound?
A: Dose-dependent effect

Q: What about the IC50 [15] of the same compound?
A: 0.0129 µM

Q: What about the inhibition [16] of the same compound?
A: Dose-dependent effect

Q: What about the inhibition [17] of the same compound?
A: Dose-dependent effect

Q: And the Activity (MV4-11 [18])?
A: 9.77%

Q: And the IC50 [19]?
A: 0.0946 µM

Q: What about the IC50 [20] of the same compound?
A: 0.00874 µM

Q: And the IC50 (MV4-11 [21])?
A: 0.016 µM

Q: What about the IC50 [22] of the same compound?
A: 0.00019 to 0.00021 µM

Q: And the Activity (MV4-11 [23])?
A: 12.8%

Q: And the inhibition [24]?
A: > 50%

Q: What about the Activity (MV4-11 [25]) of the same compound?
A: 23%

Q: What about the “inhibition (INH)” value [26] of the same compound?
A: Not Active

Q: And the Activity [27]?
A: 91.2%

Q: And the IC50 [28]?
A: 0.023 µM

Q: What about the inhibition [29] of the same compound?
A: > 50%
